# Assay results reported in patent US20250144067A1, “PERSONALIZED STARVATION THERAPY FOR CANCER” (Faeth Therapeutics, Inc., priority 2021, published 2025).
# Where a name gives a salt, the structure may show the parent alone.
# Tests used:
# [1] = test system: NCI-H292 lung cancer cells; assay: FDA drug screening, complete media vs cholesterol-free media with simvastatin (TABLE 2); format: cell-based, human; details: for Cholesterol-free media + simvastatin (0.04 μM) / Complete Media: NCI-H292 cells
# [2] = test system: NCI-H292 lung cancer cells; assay: FDA drug screening, complete media vs cholesterol-free media without statin (TABLE 1); format: cell-based, human
# [3] = FDA library drug in cholesterol-free media with simvastatin 0.04 μM
# [4] = FDA library drug in complete media
# [5] = complete media vs cholesterol-free media + simvastatin (0.04 μM), >0 enhanced anti-cancer activity, about 0 neutral, <0 antagonist
# [6] = Complete minus Cholesterol-free, >0 enhanced anti-cancer activity, about 0 neutral, <0 antagonist
# [7] = NCI-H292 cells, cholesterol-free media without statin
# [8] = NCI-H292 cells, cholesterol-free media without statin, FDA drug library screen
# [9] = NCI-H292 cells, complete media, FDA drug library screen
# [10] = complete vs cholesterol-free media, >0 enhanced anti-cancer activity, about 0 neutral, <0 antagonist
# [11] = FDA drug library screen, cholesterol-free media with simvastatin 0.04 μM
# [12] = FDA drug library screen, complete media
# [13] = complete media vs cholesterol-free media + simvastatin (0.04 μM), […]
# [14] = Complete minus Cholesterol-free, […]
# [15] = NCI-H292 cells, FDA drug library screen, cholesterol-free media without statin
# [16] = NCI-H292 cells, FDA drug library screen, complete media
# [17] = cholesterol-free media with simvastatin 0.04 μM, FDA drug library screen (TABLE 2)
# [18] = complete media, FDA drug library screen (TABLE 2)
# [19] = complete media minus cholesterol-free media + simvastatin (0.04 μM), >0 enhanced anti-cancer activity, about 0 neutral, <0 antagonist
SMILES,"Cholesterol-free media + simvastatin (0.04 μM) [1, 3]","Complete Media [1, 4]","Difference [1, 5]","Difference [2, 6]","Cholesterol-free [2, 7]","Complete ([2]; NCI-H292 cells, complete media)","Cholesterol-free [2, 8]","Complete [2, 9]","Difference [2, 10]","Cholesterol-free media + simvastatin (0.04 μM) [1, 11]","Complete Media [1, 12]","Cholesterol-free media + simvastatin (0.04 μM) [1, 17]","Complete Media [1, 18]",further results
COc1cc(Nc2ncc(F)c(Nc3ccc4c(n3)N(COP(=O)(O)O)C(=O)C(C)(C)O4)n2)cc(OC)c1OC [Fostamatinib],1.406,1.042,−0.36,−0.29,0.7013,0.4125,,,,,,,,
O=C(CO)[C@@H](O)[C@H](O)[C@H](O)CO [Fructose],2.032,1.165,−0.87,,,,1.048,1.329,0.28,,,,,
CNC(=O)c1c(C)oc2cc(Oc3ncnc4cc(OC)c(OC)cc34)ccc12 [Fruquintinib],,,−0.14,0.02,,,0.9702,0.994,,1.198,1.059,,,
N[C@@H](CSCCCO)C(=O)O [Fudosteine],,,−0.15,,,,1.084,1.177,0.09,1.309,1.163,,,
C[C@]12CC[C@@H]3c4ccc(O)cc4C[C@@H](CCCCCCCCC[S+]([O-])CCCC(F)(F)C(F)(F)F)[C@H]3[C@@H]1CC[C@@H]2O (some centres unmarked) [Fulvestrant],,,−0.09,−0.29,1.364,1.074,,,,1.051,0.9579,,,
CO[C@@H]1[C@H](OC(=O)/C=C/C=C/C=C/C=C/C(=O)O)CC[C@]2(CO2)[C@H]1[C@@]1(C)O[C@@H]1CC=C(C)C [Fumagillin],1.348,1.08,,,,,,,,,,,,"Difference [1, 13]: −0.27; Difference [2, 14]: −0.08; Cholesterol-free [2, 15]: 0.6031; Complete [2, 16]: 0.519"
O=C(O)/C=C/C(=O)O [Fumaric acid],1.117,0.8401,−0.28,,1.029,0.6691,,,,,,,,"Difference ([2]; complete vs cholesterol-free media, greater than 0 enhanced anti-cancer activity, about 0 neutral, below 0 antagonists): −0.36"
O=C1CN(/N=C/C=C/c2ccc([N+](=O)[O-])o2)C(=O)N1 [Furagin],,,,−0.23,1.216,0.9861,,,,,,1.137,1.079,"Difference [1, 19]: −0.06"
O=C1OCCN1/N=C/c1ccc([N+](=O)[O-])o1 [Furazolidone],,,,,,,0.797,,0.35,,,0.938,0.9029,"Difference [1, 19]: −0.04"
CC(=O)O[C@H]1C[C@@]2(C)[C@@H](C[C@@H](O)[C@H]3[C@@]4(C)CC[C@@H](O)[C@@H](C)[C@@H]4CC[C@@]32C)/C1=C(\CCC=C(C)C)C(=O)O [Fusidic acid (sodium salt)],,,,,,,0.7301,1.107,0.38,,,0.9882,0.9484,"Difference [1, 19]: −0.04"
NCC1(CC(=O)O)CCCCC1 [Gabapentin (hydrochloride)],,,,,,,,,,,,1.09,1.102,"Difference ([1]; complete media minus cholesterol-free media + simvastatin (0.04 μM), […]): 0.01; Difference [2, 14]: −0.52; Cholesterol-free ([2]; NCI-H292 cells in cholesterol-free media without statin): 1.513; Complete ([2]; NCI-H292 cells in complete media): 0.9969"
CC(OC(=O)NCC1(CC(=O)O)CCCCC1)OC(=O)C(C)C (centres unmarked) [Gabapentin enacarbil],,,−0.10,,,,,,,1.032,0.9332,,,"Difference ([2]; Complete minus Cholesterol-free, greater than 0 enhanced anti-cancer activity, about 0 neutral, below 0 antagonist): −0.14; Cholesterol-free [2, 15]: 1.017; Complete [2, 16]: 0.8727"
NCC1(CC(=O)O)CCCCC1 [Gabapentin],,,,,1.237,0.9357,,,,1.126,1.036,,,"Difference [1, 13]: −0.09; Difference [2, 14]: −0.30"
